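Method: 48-hour compound exposure of cells in 96-well plates, five concentrations, linear interpolation of endpoints. GI50: concentration for 50% inhibition of growth.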 Active and inactive are the calls of the source. Rule as the data show it: active = GI50 up to about 1.1 µM and inactive = higher.
How the values were obtained:
Experiment in all cases: NCI anticancer screen, dose series, 48 h
A549 = system: A549
SR = system: SR
CAKI-1 = system: CAKI-1
UO-31 = system: UO-31
SW-620 = system: SW-620
PC-3 = system: PC-3
RXF 393 = system: RXF 393
OVCAR-5 = system: OVCAR-5
HCT-116 = system: HCT-116
ACHN = system: ACHN
NCI-H522 = system: NCI-H522
MCF7 = system: MCF7
COLO 205 = system: COLO 205
HOP-62 = system: HOP-62
M14 = system: M14
KM12 = system: KM12
MDA-MB-435 = system: MDA-MB-435
HCT-15 = system: HCT-15
MDA-N = system: MDA-N
MDA-MB-231 = system: MDA-MB-231
OVCAR-4 = system: OVCAR-4
TK-10 = system: TK-10
HOP-92 = system: HOP-92
SK-MEL-5 = system: SK-MEL-5
SF-539 = system: SF-539
CCRF-CEM = system: CCRF-CEM
SF-268 = system: SF-268
BT-549 = system: BT-549
HT-29 = system: HT-29
Malme-3M = system: Malme-3M
HCC 2998 = system: HCC 2998
OVCAR-3 = system: OVCAR-3
K562 = system: K562
NCI/ADR-RES = system: NCI/ADR-RES
SNB-75 = system: SNB-75
T47D = system: T47D
NCI-H226 = system: NCI-H226
NCI-H460 = system: NCI-H460
MOLT-4 = system: MOLT-4
OVCAR-8 = system: OVCAR-8
A498 = system: A498
SK-OV-3 = system: SK-OV-3
SK-MEL-28 = system: SK-MEL-28
SN12C = system: SN12C
SF-295 = system: SF-295
NCI-H23 = system: NCI-H23
UACC-62 = system: UACC-62
SNB-19 = system: SNB-19
UACC-257 = system: UACC-257
IGROV-1 = system: IGROV-1
Hs-578T = system: Hs-578T
U-251 = system: U-251
DU-145 = system: DU-145

Cn1c(=O)c(-c2ccccc2)c(N=[N+]=[N-])c2ccccc21
GI50 (A549): 67.8 µM (inactive)
GI50 (SR): 25.3 µM (inactive)
GI50 (CAKI-1): 29.4 µM (inactive)
GI50 (UO-31): 46.8 µM (inactive)
GI50 (SW-620): 48.3 µM (inactive)
GI50 (PC-3): 22.3 µM (inactive)
GI50 (RXF 393): 80.2 µM (inactive)
GI50 (OVCAR-5): > 100 µM (inactive)
GI50 (HCT-116): 69.5 µM (inactive)
GI50 (ACHN): 30.8 µM (inactive)
GI50 (NCI-H522): 26 µM (inactive)
GI50 (MCF7): 54.3 µM (inactive)
GI50 (COLO 205): 44 µM (inactive)
GI50 (HOP-62): 45 µM (inactive)
GI50 (M14): 63.2 µM (inactive)
GI50 (KM12): 37.8 µM (inactive)
GI50 (MDA-MB-435): 45.4 µM (inactive)
GI50 (HCT-15): 39.4 µM
GI50 (MDA-N): 72.8 µM (inactive)
GI50 (MDA-MB-231): 49.5 µM (inactive)
GI50 (OVCAR-4): 56.5 µM (inactive)
GI50 (TK-10): > 100 µM (inactive)
GI50 (HOP-92): 17.9 µM (inactive)
GI50 (SK-MEL-5): 53.2 µM (inactive)
GI50 (SF-539): 54 µM (inactive)
GI50 (CCRF-CEM): 30.8 µM (inactive)
GI50 (SF-268): 39.5 µM (inactive)
GI50 (BT-549): 44.2 µM (inactive)
GI50 (HT-29): 23.5 µM (inactive)
GI50 (Malme-3M): 30.9 µM (inactive)
GI50 (HCC 2998): 22.4 µM (inactive)
GI50 (OVCAR-3): 44.2 µM (inactive)
GI50 (K562): 34.8 µM (inactive)
GI50 (NCI/ADR-RES): 28.4 µM (inactive)
GI50 (SNB-75): 4.46 µM (inactive)
GI50 (T47D): 19.8 µM (inactive)
GI50 (NCI-H226): 67 µM (inactive)
GI50 (NCI-H460): 39.4 µM (inactive)
GI50 (MOLT-4): 20.9 µM (inactive)
GI50 (OVCAR-8): 49.3 µM (inactive)
GI50 (A498): 42.6 µM (inactive)
GI50 (SK-OV-3): > 100 µM (inactive)
GI50 (SK-MEL-28): 66.4 µM (inactive)
GI50 (SN12C): 95.9 µM (inactive)
GI50 (SF-295): 47.9 µM (inactive)
GI50 (NCI-H23): 38.7 µM (inactive)
GI50 (UACC-62): 42.3 µM (inactive)
GI50 (SNB-19): > 100 µM (inactive)
GI50 (UACC-257): > 100 µM (inactive)
GI50 (IGROV-1): > 100 µM (inactive)
GI50 (Hs-578T): 37.7 µM (inactive)
GI50 (U-251): 34.8 µM (inactive)
GI50 (DU-145): > 100 µM (inactive)

Source: ChEMBL document CHEMBL1201862, “PubChem BioAssay data set” (2004)
